Results reported in US12479847B2 (DANA-FARBER CANCER INSTITUTE, INC., priority 2019, dated 2025).

How the values were obtained:
Experiment in all cases: KINOMEscan (ScanMAX) kinase profiling
Type in all cases: binding
panel of 468 kinases [1] = target: T1, panel of 468 kinases (Homo sapiens, UniProt Q9P286); details: PAK7; 1 μM; read-out: % control
T1 construct: purchased KINOMEscan (ScanMAX) service

panel of 468 kinases [2] = target: T2, panel of 468 kinases (Homo sapiens, UniProt Q9BYT3); details: STK33; 1 μM; read-out: % control
T2 construct: purchased KINOMEscan (ScanMAX) service

panel of 468 kinases [3] = target: T3, panel of 468 kinases (Homo sapiens, UniProt Q9H422); details: HIPK3; 1 μM; read-out: % control
T3 construct: purchased KINOMEscan (ScanMAX) service

panel of 468 kinases [4] = target: T4, panel of 468 kinases (Homo sapiens, UniProt Q9UM73, C1156Y); details: ALK(C1156Y); 1 μM; read-out: % control
T4 construct: purchased KINOMEscan (ScanMAX) service

panel of 468 kinases [5] = target: T5, panel of 468 kinases (Homo sapiens, UniProt P36888, D835Y); details: FLT3(D835Y); 1 μM; read-out: % control
T5 construct: purchased KINOMEscan (ScanMAX) service
T5 sequence (P36888 27-993 D835Y): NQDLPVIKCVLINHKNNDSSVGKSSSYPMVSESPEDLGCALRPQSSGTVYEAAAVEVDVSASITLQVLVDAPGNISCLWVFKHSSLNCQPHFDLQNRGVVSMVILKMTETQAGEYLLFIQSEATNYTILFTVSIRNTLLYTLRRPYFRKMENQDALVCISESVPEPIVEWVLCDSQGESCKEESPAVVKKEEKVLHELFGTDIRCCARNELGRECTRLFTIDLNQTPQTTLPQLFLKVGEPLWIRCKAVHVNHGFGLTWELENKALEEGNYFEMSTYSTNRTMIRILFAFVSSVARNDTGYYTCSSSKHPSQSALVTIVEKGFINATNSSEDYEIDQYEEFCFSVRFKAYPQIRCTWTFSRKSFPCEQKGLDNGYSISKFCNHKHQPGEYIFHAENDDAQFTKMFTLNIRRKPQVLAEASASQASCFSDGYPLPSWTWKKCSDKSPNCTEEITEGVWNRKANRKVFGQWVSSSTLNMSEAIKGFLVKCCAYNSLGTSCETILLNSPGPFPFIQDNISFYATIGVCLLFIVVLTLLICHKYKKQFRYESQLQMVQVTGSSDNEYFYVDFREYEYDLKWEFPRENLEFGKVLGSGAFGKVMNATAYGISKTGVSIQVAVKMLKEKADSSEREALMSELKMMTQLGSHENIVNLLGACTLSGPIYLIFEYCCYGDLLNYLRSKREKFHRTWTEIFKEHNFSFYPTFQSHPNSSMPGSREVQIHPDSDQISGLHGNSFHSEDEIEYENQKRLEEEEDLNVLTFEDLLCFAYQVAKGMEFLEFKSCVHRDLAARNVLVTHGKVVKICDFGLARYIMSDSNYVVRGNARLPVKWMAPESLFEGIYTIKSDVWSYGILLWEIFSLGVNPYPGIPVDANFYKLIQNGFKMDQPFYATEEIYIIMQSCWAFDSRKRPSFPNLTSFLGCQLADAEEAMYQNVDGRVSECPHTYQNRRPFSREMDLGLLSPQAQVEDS

panel of 468 kinases [6] = target: T6, panel of 468 kinases (Homo sapiens, UniProt Q13164); details: ERK5; 1 μM; read-out: % control
T6 construct: purchased KINOMEscan (ScanMAX) service

panel of 468 kinases [7] = target: T7, panel of 468 kinases (Homo sapiens, UniProt Q9UL54); details: TAOK2; 1 μM; read-out: % control
T7 construct: purchased KINOMEscan (ScanMAX) service
T7 sequence (Q9UL54 1-1235): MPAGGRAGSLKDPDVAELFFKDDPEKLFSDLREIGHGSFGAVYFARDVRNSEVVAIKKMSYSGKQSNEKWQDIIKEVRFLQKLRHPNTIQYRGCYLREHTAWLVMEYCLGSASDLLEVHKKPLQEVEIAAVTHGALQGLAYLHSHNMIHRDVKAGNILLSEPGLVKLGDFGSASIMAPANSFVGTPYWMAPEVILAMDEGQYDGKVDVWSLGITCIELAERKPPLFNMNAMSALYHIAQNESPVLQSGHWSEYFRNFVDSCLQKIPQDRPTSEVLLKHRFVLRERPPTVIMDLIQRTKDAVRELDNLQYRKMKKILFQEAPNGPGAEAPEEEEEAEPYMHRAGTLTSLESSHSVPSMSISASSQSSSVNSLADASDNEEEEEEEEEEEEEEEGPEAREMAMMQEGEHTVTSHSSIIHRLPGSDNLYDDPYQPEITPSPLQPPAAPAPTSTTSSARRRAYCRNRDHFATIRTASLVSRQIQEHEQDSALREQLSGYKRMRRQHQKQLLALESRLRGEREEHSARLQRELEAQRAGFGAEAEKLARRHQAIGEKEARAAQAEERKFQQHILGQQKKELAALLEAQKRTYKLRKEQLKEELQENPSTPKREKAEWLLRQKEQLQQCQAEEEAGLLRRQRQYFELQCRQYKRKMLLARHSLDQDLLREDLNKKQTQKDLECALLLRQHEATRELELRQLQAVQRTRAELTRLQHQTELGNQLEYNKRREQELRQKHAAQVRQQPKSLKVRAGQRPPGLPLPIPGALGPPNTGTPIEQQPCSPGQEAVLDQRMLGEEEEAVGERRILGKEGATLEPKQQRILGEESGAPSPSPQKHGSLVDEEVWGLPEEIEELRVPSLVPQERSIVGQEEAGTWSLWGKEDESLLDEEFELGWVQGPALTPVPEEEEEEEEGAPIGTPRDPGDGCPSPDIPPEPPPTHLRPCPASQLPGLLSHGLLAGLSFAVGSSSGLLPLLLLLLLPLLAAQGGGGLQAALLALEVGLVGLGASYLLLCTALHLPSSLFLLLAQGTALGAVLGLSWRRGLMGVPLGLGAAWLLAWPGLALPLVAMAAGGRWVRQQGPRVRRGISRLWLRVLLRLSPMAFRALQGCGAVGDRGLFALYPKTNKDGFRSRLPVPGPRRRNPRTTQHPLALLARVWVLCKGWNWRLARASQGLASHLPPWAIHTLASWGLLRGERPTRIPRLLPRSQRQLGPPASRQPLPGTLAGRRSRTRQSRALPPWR

panel of 468 kinases [8] = target: T8, panel of 468 kinases (Homo sapiens, UniProt P31152); details: ERK4; 1 μM; read-out: % control
T8 construct: purchased KINOMEscan (ScanMAX) service

T6 sequence (Q13164 whole entry): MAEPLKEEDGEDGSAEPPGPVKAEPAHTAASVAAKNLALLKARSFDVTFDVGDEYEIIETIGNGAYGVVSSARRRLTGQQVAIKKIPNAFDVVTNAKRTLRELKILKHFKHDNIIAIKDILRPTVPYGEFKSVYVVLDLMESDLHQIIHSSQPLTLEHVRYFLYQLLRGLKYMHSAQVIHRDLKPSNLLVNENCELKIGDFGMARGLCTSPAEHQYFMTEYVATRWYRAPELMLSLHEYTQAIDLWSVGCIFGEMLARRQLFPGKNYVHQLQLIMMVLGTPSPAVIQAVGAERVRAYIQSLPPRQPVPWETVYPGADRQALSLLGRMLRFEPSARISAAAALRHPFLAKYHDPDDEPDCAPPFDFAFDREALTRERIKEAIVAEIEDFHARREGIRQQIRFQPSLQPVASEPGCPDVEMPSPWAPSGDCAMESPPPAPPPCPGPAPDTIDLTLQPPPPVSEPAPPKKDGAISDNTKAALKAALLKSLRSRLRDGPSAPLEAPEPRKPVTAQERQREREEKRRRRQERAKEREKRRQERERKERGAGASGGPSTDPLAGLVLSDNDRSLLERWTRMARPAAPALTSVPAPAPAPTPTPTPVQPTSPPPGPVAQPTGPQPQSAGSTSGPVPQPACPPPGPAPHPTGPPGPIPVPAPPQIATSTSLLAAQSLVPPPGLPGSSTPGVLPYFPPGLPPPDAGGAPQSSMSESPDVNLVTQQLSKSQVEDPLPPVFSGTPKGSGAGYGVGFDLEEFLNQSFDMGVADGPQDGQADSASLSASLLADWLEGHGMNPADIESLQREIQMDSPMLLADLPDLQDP
T3 sequence (Q9H422 whole entry): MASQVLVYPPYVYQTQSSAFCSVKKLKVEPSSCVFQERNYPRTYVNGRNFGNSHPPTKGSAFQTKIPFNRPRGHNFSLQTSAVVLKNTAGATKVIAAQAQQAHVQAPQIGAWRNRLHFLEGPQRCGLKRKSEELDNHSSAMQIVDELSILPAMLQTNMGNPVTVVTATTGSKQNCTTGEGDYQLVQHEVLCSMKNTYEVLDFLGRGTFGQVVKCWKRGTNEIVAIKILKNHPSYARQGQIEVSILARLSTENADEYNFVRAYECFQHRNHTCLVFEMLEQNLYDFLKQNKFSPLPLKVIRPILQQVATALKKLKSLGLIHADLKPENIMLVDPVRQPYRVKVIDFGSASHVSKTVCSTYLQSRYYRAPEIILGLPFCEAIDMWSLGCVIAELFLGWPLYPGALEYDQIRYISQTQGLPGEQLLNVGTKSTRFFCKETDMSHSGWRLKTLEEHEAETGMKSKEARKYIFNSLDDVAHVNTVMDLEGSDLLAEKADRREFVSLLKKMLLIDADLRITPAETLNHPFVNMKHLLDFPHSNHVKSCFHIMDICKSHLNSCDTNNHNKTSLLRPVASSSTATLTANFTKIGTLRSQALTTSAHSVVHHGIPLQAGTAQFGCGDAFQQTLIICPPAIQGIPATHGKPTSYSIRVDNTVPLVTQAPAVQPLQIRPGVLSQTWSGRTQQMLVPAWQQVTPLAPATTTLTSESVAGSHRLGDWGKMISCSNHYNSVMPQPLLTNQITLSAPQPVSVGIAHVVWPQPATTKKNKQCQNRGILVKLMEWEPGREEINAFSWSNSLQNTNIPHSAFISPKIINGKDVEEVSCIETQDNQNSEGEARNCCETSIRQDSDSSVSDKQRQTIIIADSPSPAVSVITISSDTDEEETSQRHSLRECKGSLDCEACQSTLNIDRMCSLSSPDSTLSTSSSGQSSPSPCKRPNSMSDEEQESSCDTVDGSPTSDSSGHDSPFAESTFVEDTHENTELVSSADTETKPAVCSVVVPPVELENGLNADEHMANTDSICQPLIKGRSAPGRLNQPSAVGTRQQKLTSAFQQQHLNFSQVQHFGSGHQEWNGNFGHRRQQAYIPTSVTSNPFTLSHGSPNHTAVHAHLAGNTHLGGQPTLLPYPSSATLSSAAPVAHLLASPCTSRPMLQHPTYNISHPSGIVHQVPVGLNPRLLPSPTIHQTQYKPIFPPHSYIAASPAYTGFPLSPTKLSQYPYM
T4 sequence (Q9UM73 19-1620 C1156Y): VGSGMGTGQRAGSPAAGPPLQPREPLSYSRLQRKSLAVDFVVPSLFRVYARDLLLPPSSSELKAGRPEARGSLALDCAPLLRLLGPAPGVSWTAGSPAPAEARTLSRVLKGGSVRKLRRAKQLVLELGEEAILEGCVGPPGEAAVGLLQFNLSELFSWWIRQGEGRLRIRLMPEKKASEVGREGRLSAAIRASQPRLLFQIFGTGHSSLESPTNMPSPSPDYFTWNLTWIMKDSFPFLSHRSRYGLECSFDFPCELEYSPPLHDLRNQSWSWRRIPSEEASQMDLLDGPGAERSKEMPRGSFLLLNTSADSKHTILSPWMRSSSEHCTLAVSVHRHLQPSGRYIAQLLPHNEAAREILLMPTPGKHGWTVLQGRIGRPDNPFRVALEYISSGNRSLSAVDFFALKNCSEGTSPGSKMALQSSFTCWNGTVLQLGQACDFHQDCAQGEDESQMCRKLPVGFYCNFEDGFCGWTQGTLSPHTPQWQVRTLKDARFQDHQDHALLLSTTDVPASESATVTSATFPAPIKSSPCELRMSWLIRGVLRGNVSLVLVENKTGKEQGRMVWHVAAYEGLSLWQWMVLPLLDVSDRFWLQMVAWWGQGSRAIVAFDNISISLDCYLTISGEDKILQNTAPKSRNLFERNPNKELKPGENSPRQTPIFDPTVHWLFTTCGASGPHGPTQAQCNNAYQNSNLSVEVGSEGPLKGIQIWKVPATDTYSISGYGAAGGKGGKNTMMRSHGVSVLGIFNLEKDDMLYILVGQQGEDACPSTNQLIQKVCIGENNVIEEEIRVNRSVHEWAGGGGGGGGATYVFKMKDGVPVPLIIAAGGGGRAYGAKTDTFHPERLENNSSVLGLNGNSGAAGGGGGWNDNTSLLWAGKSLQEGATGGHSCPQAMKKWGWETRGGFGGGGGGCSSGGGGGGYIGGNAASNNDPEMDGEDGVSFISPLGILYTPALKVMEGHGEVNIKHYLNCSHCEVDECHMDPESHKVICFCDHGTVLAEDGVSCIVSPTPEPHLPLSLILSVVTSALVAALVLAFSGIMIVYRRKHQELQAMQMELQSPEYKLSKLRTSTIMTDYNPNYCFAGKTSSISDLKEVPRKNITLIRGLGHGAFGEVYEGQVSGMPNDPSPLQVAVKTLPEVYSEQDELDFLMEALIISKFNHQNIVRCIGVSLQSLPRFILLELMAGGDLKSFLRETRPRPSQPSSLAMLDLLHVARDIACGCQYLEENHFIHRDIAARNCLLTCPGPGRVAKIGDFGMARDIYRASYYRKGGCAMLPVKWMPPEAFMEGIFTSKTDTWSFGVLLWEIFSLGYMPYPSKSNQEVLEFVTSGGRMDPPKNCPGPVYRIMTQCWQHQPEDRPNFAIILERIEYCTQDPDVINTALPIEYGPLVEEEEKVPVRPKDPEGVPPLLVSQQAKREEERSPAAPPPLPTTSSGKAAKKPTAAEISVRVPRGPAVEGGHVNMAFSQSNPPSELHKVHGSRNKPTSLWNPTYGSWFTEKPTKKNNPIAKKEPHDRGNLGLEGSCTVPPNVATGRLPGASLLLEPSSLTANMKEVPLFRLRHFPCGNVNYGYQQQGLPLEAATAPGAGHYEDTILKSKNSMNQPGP
T2 sequence (Q9BYT3 whole entry): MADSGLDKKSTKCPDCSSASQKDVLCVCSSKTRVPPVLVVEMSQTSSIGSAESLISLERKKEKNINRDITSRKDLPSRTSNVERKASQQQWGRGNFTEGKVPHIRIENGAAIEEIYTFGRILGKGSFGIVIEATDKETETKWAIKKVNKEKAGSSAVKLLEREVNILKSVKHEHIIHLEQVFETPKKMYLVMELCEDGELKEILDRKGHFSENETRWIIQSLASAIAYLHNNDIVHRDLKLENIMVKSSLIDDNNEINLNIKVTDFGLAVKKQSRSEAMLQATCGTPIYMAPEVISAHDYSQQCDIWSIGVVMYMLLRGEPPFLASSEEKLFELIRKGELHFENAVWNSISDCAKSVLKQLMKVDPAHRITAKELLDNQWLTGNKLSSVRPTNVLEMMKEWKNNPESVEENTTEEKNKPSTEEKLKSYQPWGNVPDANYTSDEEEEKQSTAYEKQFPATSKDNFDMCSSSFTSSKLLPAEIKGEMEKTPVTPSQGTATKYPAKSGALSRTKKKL
T1 sequence (Q9P286 whole entry): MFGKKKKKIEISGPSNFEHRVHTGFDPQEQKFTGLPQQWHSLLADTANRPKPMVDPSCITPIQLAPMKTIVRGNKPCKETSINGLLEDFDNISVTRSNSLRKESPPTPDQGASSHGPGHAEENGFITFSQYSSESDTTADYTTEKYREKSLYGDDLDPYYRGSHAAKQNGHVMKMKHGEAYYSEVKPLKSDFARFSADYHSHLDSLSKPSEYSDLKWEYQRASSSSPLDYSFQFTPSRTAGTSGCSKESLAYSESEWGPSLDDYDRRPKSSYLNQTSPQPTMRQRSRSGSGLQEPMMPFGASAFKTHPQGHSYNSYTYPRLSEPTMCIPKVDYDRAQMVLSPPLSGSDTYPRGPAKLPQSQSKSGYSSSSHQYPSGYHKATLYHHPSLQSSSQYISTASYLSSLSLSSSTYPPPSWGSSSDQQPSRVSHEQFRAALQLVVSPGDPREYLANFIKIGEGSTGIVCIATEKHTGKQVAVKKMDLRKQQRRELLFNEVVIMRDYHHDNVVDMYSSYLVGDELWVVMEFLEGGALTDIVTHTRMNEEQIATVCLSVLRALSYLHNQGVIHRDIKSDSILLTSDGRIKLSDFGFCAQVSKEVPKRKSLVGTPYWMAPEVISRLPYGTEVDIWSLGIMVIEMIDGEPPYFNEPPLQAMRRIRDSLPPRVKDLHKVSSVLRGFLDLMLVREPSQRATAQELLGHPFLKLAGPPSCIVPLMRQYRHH

CNc1nc(Nc2ccc(C(=O)N3CCC(N4CCOCC4)CC3)c3c2OCO3)nc2[nH]cc(Cl)c12 [Compound 75, (7-((5-chloro-4-(methylamino)-7H-pyrrolo[2,3-d]pyrimidin-2-yl)amino)benzo[d][1,3]dioxol-4-yl)(4-morpholinopiperidin-1-yl)methanone]
remaining binding at 1 µM (panel of 468 kinases [1]): 97%
remaining binding at 1 µM (panel of 468 kinases [2]): 7.2%
remaining binding at 1 µM (panel of 468 kinases [3]): 59%
remaining binding at 1 µM (panel of 468 kinases [4]): 1.2%
remaining binding at 1 µM (panel of 468 kinases [5]): 14%
remaining binding at 1 µM (panel of 468 kinases [6]): 51%
remaining binding at 1 µM (panel of 468 kinases [7]): 77%
remaining binding at 1 µM (panel of 468 kinases [8]): 100%

CNc1nc(Nc2ccc(S(=O)(=O)N3CCC(N4CCOCC4)CC3)cc2OC)nc2[nH]cc(Cl)c12 [Compound 12, 5-chloro-N2-(2-methoxy-4-((4-morpholinopiperidin-1-yl)sulfonyl)phenyl)-N4-methyl-7H-pyrrolo[2,3-d]pyrimidine-2,4-diamine]
remaining binding at 1 µM (panel of 468 kinases [1]): 100%
remaining binding at 1 µM (panel of 468 kinases [2]): 10%
remaining binding at 1 µM (panel of 468 kinases [3]): 72%
remaining binding at 1 µM (panel of 468 kinases [4]): 2.7%
remaining binding at 1 µM (panel of 468 kinases [5]): 96%
remaining binding at 1 µM (panel of 468 kinases [6]): 53%
remaining binding at 1 µM (panel of 468 kinases [7]): 73%
remaining binding at 1 µM (panel of 468 kinases [8]): 100%

CNc1nc(Nc2ccc(P3(=O)CCN(C4CCOCC4)CC3)cc2OC)nc2[nH]cc(Cl)c12 [Compound 77, 4-(4-((5-chloro-4-(methylamino)-7H-pyrrolo[2,3-d]pyrimidin-2-yl)amino)-3-methoxyphenyl)-1-(tetrahydro-2H-pyran-4-yl)-1,4-azaphosphinane 4-oxide]
remaining binding at 1 µM (panel of 468 kinases [1]): 100%
remaining binding at 1 µM (panel of 468 kinases [2]): 6.9%
remaining binding at 1 µM (panel of 468 kinases [3]): 64%
remaining binding at 1 µM (panel of 468 kinases [4]): 1.3%
remaining binding at 1 µM (panel of 468 kinases [5]): 47%
remaining binding at 1 µM (panel of 468 kinases [6]): 78%
remaining binding at 1 µM (panel of 468 kinases [7]): 76%
remaining binding at 1 µM (panel of 468 kinases [8]): 100%
